Measurements taken from patent US20260317357A1, “HETEROCYCLIC COMPOUNDS AS STING AGONISTS” (LigaChem Biosciences Inc., priority 2022, published 2026).

What was measured:
[1] = biological target: T1, hSTING-R232 (Homo sapiens, UniProt Q86WV6, H232R); test: STING agonist activity, THP1 Dual KI-hSTING-R232 IRF luciferase reporter cells; format: cell-based; details: 24 hours
T1 construct: host or cells: THP1 Dual KI-hSTING-R232 (STING HAQ gene removed, R232 variant gene introduced)
Protocol: (§1) In order to evaluate the activity of the STING agonist, reporter cells from Invivogen were used. The cell lines used in the experiment were THP1 Dual™ (InvivoGen #thpd-nfis) expressing the endogenous STING variant HAQ and THP1 Dual™ KI-hSTING-R232 (InvivoGen #thpd-r232/h232) into which the STING R232 or H232 variant gene was injected after removing the STING HAQ gene. The cell lines have a luciferase reporter gene inserted below the IFN regulatory factor (IRF) promoter, and thus the activity of the IFN regulatory factor (IRF) mechanism can be evaluated through luciferase expression.
(§2) The reporter cells were plated at 9.0×10^4 cells/100 μL per well in a 96-well plate using RPMI 1640 medium (Gibco, #22400097) supplemented with 10% heat-inactivated FBS and 1×Antibiotic-Antimycotic (Gibco, #15240062), 10 μg/mL blasticidin (Gibco, #A1113902), and 100 μg/mL Zeocin (Gibco, #R25005). The plated cells were cultured at 37° C., 5% CO2 for 24 hours, and then treated with 100 μL of the serially diluted compound in each well, and then cultured at 37° C., 5% CO2 for 24 hours. After culturing, 20 μL of the cell culture medium was transferred to a 96 well white plate, and QUANTI-Luc™ (InvivoGen #rep-qlcl) was added at 50 µL/well. Using a microplate reader (Perkin Elmer), the value of the luminescence signal increased in the experimental group treated with the drug compared to the control group not treated with the drug was calculated. EC50 values were derived according to the concentration of the compound using GraphPad Prism.

[2] = In vitro cell cytotoxicity in CD34+ HSC (CellTiter-Glo); format: cell-based; details: cd34+ hscs
Protocol: The CD34^+ hematopoietic stem cells (HSCs) were purchased from […]™ (#70002.3). The cells (2×10^4 cells per well) were cultured in StemSpan™ SFEM II medium supplemented with StemSpan™ CD34+ Expansion Supplement (#02691) in a 6-well plate at 37° C. for 7 days. On day 3 or 4, an equal volume of fresh complete medium was added into the cell culture. On day 7, the cells (4×10^4 cells per well) were seeded in a 96-well white plate and rested for 24 hours in the same condition.
After 72 hours, the cell viability was measured using CellTiter-Glo Luminescent Cell Viability Assay (Promega, #G7573) according to the manufacture's instruction. The signal was detected using an EnVision Xcite multilabel reader and data were analyzed using GraphPad Prism 8 software.

[3] = biological target: T2, hSTING-H232 (Homo sapiens, UniProt Q86WV6); test: STING agonist activity, THP1 Dual reporter cells with STING H232 variant; format: cell-based; details: IRF luciferase, 24 hours
T2 construct: host or cells: THP1 Dual KI-hSTING (STING HAQ gene removed, H232 variant gene introduced)
Protocol: as §1, §2

[4] = In vitro cell cytotoxicity in PBMCs (CellTiter-Glo); format: cell-based
Protocol: PBMCs were also purchased from […]™ (#700025.2). The cells (8.0×10^4 cells per well) were seeded in a flat-bottomed 96-well plate in RPMI 1640 medium (Gibco, #22400097) with 10% heat-inactivated FBS and 1×Antibiotic-Antimycotic (Gibco, #15240062) and rested for 24 hours at 37° C. […] After 72 hours, the cell viability was measured using CellTiter-Glo Luminescent Cell Viability Assay (Promega, #G7573) according to the manufacture's instruction. The signal was detected using an EnVision Xcite multilabel reader and data were analyzed using GraphPad Prism 8 software.
To verify the effect of the STING agonist compounds in normal cell cytotoxicity, the PBMCs were treated with the STING agonist compounds for 3 days and measured the percentage of cell death.

[5] = biological target: T3, hSTING-HAQ (Homo sapiens, UniProt Q86WV6, G230A/H232R/R293Q/R71H); test: STING agonist activity, THP1 Dual reporter cells expressing endogenous STING variant HAQ; format: cell-based; details: IRF luciferase, 24 hours
T3 construct: expressing the endogenous STING variant HAQ; host or cells: THP1 Dual
Protocol: as §1, §2

[6] = biological target: T4, human STING (Homo sapiens, UniProt Q86WV6); test: Direct binding potency, HUMAN STING WT BINDING KIT (Cisbio); details: in vitro
T4 construct: purchased Cisbio #64BDSTGPEG
Description: Additionally, or analysis of direct binding potency of STING agonist compounds described herein to human STING, HUMAN STING WT BINDING KIT (Cisbio, #64BDSTGPEG) was used according to the manufacturer's instruction.

[7] = Pharmacokinetics in Balb/C mouse after single IV dose; format: in vivo; details: 1.5 mg/kg; for AUC(0-inf) / AUC(0-t) / C0 / Cmax / AUC∞, norm / Cmax, norm: n = 3, plasma; for AUC∞, norm / Cmax, norm: dose-normalized; for clearance / half-life / Vd: plasma; for clearance / half-life: n = 3; for Vd: n = 3, read-out: VSS
Protocol: For in vivo evaluation of STING agonist compounds described herein in naïve Balb/C mouse, single doses of STING agonist compounds were given at 1.5 mg/kg intravenously into female BALB/c mice (Orientbio, South Korea) at 6-8 weeks of age. Pharmacokinetics were studied following injection of the STING agonist compounds into Balb/C mice. Plasma samples were taken at various time points and stored frozen for analysis. The plasma concentrations of the STING agonist compounds at the indicated time points were measured using a LC-MS/MS analysis method.
Briefly, 250 μL of acetonitrile (ACN) solution was added in both 50 µL of sample and 50 µL of plasma containing 10 nM Dextromethorphan (internal standard), and the solutions were mixed vigorously using a vortex mixer for 5 minutes. The samples were then spun down at 14,000 rpm, 4° C. for 5 minutes. 100 μL of supernatants were combined with 100 μL of mobile phase A (0.1% formic acid in water with 5% ACN) and mixed thoroughly. The samples were measured for the STING agonist compounds using a LC-MS/MS (Nexera LC40 (SHIMADZU) and QTRAP4500 (SCIEX)).

T3 sequence (Q86WV6 whole entry R71H/G230A/H232R/R293Q): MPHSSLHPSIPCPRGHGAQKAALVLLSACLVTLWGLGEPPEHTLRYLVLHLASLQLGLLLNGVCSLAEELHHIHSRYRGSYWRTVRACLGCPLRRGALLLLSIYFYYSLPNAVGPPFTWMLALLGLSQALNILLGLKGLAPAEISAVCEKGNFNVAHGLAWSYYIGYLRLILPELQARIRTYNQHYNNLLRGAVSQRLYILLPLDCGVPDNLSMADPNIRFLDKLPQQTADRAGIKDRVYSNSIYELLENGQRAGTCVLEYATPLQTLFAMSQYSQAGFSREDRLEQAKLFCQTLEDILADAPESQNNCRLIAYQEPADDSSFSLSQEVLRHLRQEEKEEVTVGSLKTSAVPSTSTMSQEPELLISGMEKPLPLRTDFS
T1 sequence (Q86WV6 whole entry H232R): as the sequence (Q86WV6 whole entry R71H/G230A/H232R/R293Q) above, with H71R, A230G, Q293R counted along it
T2 sequence (Q86WV6 whole entry): as the sequence (Q86WV6 whole entry R71H/G230A/H232R/R293Q) above, with H71R, A230G, R232H, Q293R counted along it
T4 sequence (Q86WV6 whole entry): as the sequence (Q86WV6 whole entry R71H/G230A/H232R/R293Q) above, with H71R, A230G, R232H, Q293R counted along it

| EC50 [1] [nM] | EC50 [3] [nM] | EC50 [5] [nM] | EC50 [6] [nM] | AUC(0-inf) [7] [ng·h/mL] | AUC(0-t) [7] [ng·h/mL] | C0 [7] [ng/mL] | Cmax [7] [ng/mL] | AUC∞, norm [7] [kg·h/L] | Cmax, norm [7] [kg/L] | clearance [7] [mL/min/kg] | half-life [7] [min] | Vd [7] [L/kg] | SMILES | CC50 at 72 h [2] [nM] | CC50 at 72 h [4] [nM] |
| --- | --- | --- | --- | --- | --- | --- | --- | --- | --- | --- | --- | --- | --- | --- | --- |
| 3.37 | 9.5 | 15.5 |  |  |  |  |  |  |  |  |  |  | CCn1nc(C)cc1C(=O)Nc1nc2cc(C(N)=O)cc(OC)c2n1C/C=C/Cn1c(NC(=O)c2cc(C)nn2CC)nc2cc(C(N)=O)cc(OC/C=C/CN3CCNCC3=O)c21 [Compound 28] | 24.9 | 12.7 |
| 0.5 | 5.5 | 6.3 | 0.22 | 5160 ± 120 | 5110 ± 120 | 21100 ± 2210 | 14100 ± 590 | 3.44 ± 0.08 | 9.42 ± 0.39 | 4.83 | 72 ± 4.8 | 0.15 | CCn1nc(C)cc1C(=O)Nc1nc2cc(C(N)=O)cc(OC)c2n1C/C=C/Cn1c(NC(=O)c2cc(C)nn2CC)nc2cc(C(N)=O)cc(OC/C=C/Cn3cc(N)cn3)c21 [Compound 55] | 7.9 | 4 |
| 1.7 | 7 | 25.5 | 0.43 | 440 ± 440 | 430 ± 50 | 1300 ± 430 | 960 ± 170 | 0.29 ± 0.03 | 0.64 ± 0.11 | 57.5 | 28.2 ± 4.8 | 1.58 ± 0.13 | CCn1nc(C)cc1C(=O)Nc1nc2cc(C(N)=O)cc(OC/C=C/Cn3cc(N)cn3)c2n1C/C=C/Cn1c(NC(=O)c2cc(C)nn2CC)nc2cc(C(N)=O)cc(OCCCC(=O)O)c21 [Compound 65] | 3.9 | 18.5 |
